Measurements as given in patent US20140024527A1, “HERBICIDAL PYRAZINONES” (E I DU DE NEMOURS AND COMPANY, priority 2011, published 2014).

What was measured:
Type in all cases: in vivo
[1] = test system: morningglory (Ipomoea spp.); test: Test A postemergence; details: 0 to 100 scale, 0 no effect, 100 complete control, approx. 10 days
Source text: (§1) Seeds of barnyardgrass (Echinochloa crus-galli), large crabgrass (Digitaria sanguinalis), giant foxtail (Setaria faberii), morningglory (Ipomoea spp.), pigweed (Amaranthus retroflexus), velvetleaf (Abutilon theophrasti), wheat (Triticum aestivum) and corn (Zea mays) were planted into a blend of loam soil and sand and treated preemergence with a directed soil spray using test chemicals formulated in a non-phytotoxic solvent mixture which included a surfactant. At the same time these species were also treated with postemergence applications of test compounds formulated in the same manner. Plants ranged in height from 2 to 10 cm and were in the one- to two-leaf stage for the postemergence treatments. Treated plants and untreated controls were maintained in a greenhouse for approximately 10 days, after which time all treated plants were compared to untreated controls and visually evaluated for injury. Plant response ratings, summarized in Table A, are based on a 0 to 100 scale where 0 is no effect and 100 is complete control.

[2] = test system: giant foxtail (Setaria faberii); test: Test A postemergence; details: 0 to 100 scale, 0 no effect, 100 complete control, approx. 10 days
Source text: as §1

[3] = test system: corn (Zea mays); test: Test A postemergence; details: 0 to 100 scale, 0 no effect, 100 complete control, approx. 10 days
Source text: as §1

[4] = test system: barnyardgrass (Echinochloa crus-galli); test: Test A postemergence; details: 0 to 100 scale, 0 no effect, 100 complete control, approx. 10 days
Source text: as §1

[5] = test system: large crabgrass (Digitaria sanguinalis); test: Test A postemergence; details: 0 to 100 scale, 0 no effect, 100 complete control, approx. 10 days
Source text: as §1

[6] = test system: pigweed (Amaranthus retroflexus); test: Test A postemergence; details: 0 to 100 scale, 0 no effect, 100 complete control, approx. 10 days
Source text: as §1

[7] = test system: wheat (Triticum aestivum); test: Test A postemergence; details: 0 to 100 scale, 0 no effect, 100 complete control, approx. 10 days
Source text: as §1

[8] = test system: velvetleaf (Abutilon theophrasti); test: Test A postemergence; details: 0 to 100 scale, 0 no effect, 100 complete control, approx. 10 days
Source text: as §1

[9] = test system: morningglory (Ipomoea spp.); test: Test A preemergence; details: 0 to 100 scale, 0 no effect, 100 complete control, approx. 10 days
Source text: as §1

[10] = test system: giant foxtail (Setaria faberii); test: Test A preemergence; details: 0 to 100 scale, 0 no effect, 100 complete control, approx. 10 days
Source text: as §1

[11] = test system: corn (Zea mays); test: Test A preemergence; details: 0 to 100 scale, 0 no effect, 100 complete control, approx. 10 days
Source text: as §1

[12] = test system: barnyardgrass (Echinochloa crus-galli); test: Test A preemergence; details: 0 to 100 scale, 0 no effect, 100 complete control, approx. 10 days
Source text: as §1

[13] = test system: large crabgrass (Digitaria sanguinalis); test: Test A preemergence; details: 0 to 100 scale, 0 no effect, 100 complete control, approx. 10 days
Source text: as §1

[14] = test system: pigweed (Amaranthus retroflexus); test: Test A preemergence; details: 0 to 100 scale, 0 no effect, 100 complete control, approx. 10 days
Source text: as §1

[15] = test system: wheat (Triticum aestivum); test: Test A preemergence; details: 0 to 100 scale, 0 no effect, 100 complete control, approx. 10 days
Source text: as §1

[16] = test system: velvetleaf (Abutilon theophrasti); test: Test A preemergence; details: 0 to 100 scale, 0 no effect, 100 complete control, approx. 10 days
Source text: as §1

[17] = test system: rice (Oryza sativa); test: Test B flooded paddy test; details: Flood, scale 0 to 100
Source text: (§2) Plant species in the flooded paddy test consisted of rice (Oryza sativa), umbrella sedge (Cyperus difformis), ducksalad (Heteranthera limosa) and barnyardgrass (Echinochloa crus-galli) grown to the 2-leaf stage for testing. At time of treatment, test pots were flooded to 3 cm above the soil surface, treated by application of test compounds directly to the paddy water, and then maintained at that water depth for the duration of the test. Treated plants and controls were maintained in a greenhouse for 13 to 15 days, after which time all species were compared to controls and visually evaluated. Plant response ratings, summarized in Table B, are based on a scale of 0 to 100 where 0 is no effect and 100 is complete control. A dash (-) response means no test result.

[18] = test system: ducksalad (Heteranthera limosa); test: Test B flooded paddy test; details: Flood, scale 0 to 100
Source text: as §2

[19] = test system: barnyardgrass (Echinochloa crus-galli); test: Test B flooded paddy test; details: Flood
Source text: as §2

[20] = test system: umbrella sedge (Cyperus difformis); test: Test B flooded paddy test; details: Flood, scale 0 to 100
Source text: as §2

For `COCCn1c(-c2cccc(F)c2)c(Cl)nc(C(=O)C2=C(O)CCCC2=O)c1=O` [Compound 7, 5-chloro-6-(3-fluorophenyl)-3-[(2-hydroxy-6-oxo-1-cyclohexen-1-yl)carbonyl]-1-(2-methoxyethyl)-2(1H)pyrazinone], the “Plant response rating, Morningglory” value ([1]; 125 g ai/ha) was 80, the “Plant response rating, Morningglory” value ([1]; 500 g ai/ha) was 90 and the “Plant response rating, Foxtail, Giant” value ([2]; 125 g ai/ha) was 0. The “Plant response rating, Foxtail, Giant” value ([2]; 500 g ai/ha) was 0, the “Plant response rating, Corn” value ([3]; 125 g ai/ha) was 0 and the “Plant response rating, Corn” value ([3]; 500 g ai/ha) was 20. For the same molecule, the “Plant response rating, Barnyardgrass” value ([4]; 125 g ai/ha) was 20, the “Plant response rating, Barnyardgrass” value ([4]; 500 g ai/ha) was 80 and the “Plant response rating, Crabgrass, Large” value ([5]; 125 g ai/ha) was 0. For the same molecule, the “Plant response rating, Crabgrass, Large” value ([5]; 500 g ai/ha) was 10, the “Plant response rating, Pigweed” value ([6]; 125 g ai/ha) was 80 and the “Plant response rating, Pigweed” value ([6]; 500 g ai/ha) was 90. The “Plant response rating, Wheat” value ([7]; 125 g ai/ha) was 0, the “Plant response rating, Wheat” value ([7]; 500 g ai/ha) was 0 and the “Plant response rating, Velvetleaf” value ([8]; 125 g ai/ha) was 100. The “Plant response rating, Velvetleaf” value ([8]; 500 g ai/ha) was 100, the “Plant response rating, Morningglory” value ([9]; 125 g ai/ha) was 0 and the “Plant response rating, Morningglory” value ([9]; 500 g ai/ha) was 20. The “Plant response rating, Foxtail, Giant” value ([10]; 125 g ai/ha) was 0, the “Plant response rating, Foxtail, Giant” value ([10]; 500 g ai/ha) was 0 and the “Plant response rating, Corn” value ([11]; 125 g ai/ha) was 0. For the same molecule, the “Plant response rating, Corn” value ([11]; 500 g ai/ha) was 0, the “Plant response rating, Barnyardgrass” value ([12]; 125 g ai/ha) was 0 and the “Plant response rating, Barnyardgrass” value ([12]; 500 g ai/ha) was 10. For the same molecule, the “Plant response rating, Crabgrass, Large” value ([13]; 125 g ai/ha) was 0, the “Plant response rating, Crabgrass, Large” value ([13]; 500 g ai/ha) was 0 and the “Plant response rating, Pigweed” value ([14]; 125 g ai/ha) was 0. For the same molecule, the “Plant response rating, Pigweed” value ([14]; 500 g ai/ha) was 50, the “Plant response rating, Wheat” value ([15]; 125 g ai/ha) was 0 and the “Plant response rating, Wheat” value ([15]; 500 g ai/ha) was 0. For the same molecule, the “Plant response rating, Velvetleaf” value ([16]; 125 g ai/ha) was 0, the “Plant response rating, Velvetleaf” value ([16]; 500 g ai/ha) was 20 and the “Plant response rating, Rice” value ([17]; 31 g ai/ha) was 0. For the same molecule, the “Plant response rating, Rice” value ([17]; 62 g ai/ha) was 0, the “Plant response rating, Rice” value ([17]; 125 g ai/ha) was 0 and the “Plant response rating, Rice” value ([17]; 250 g ai/ha) was 15. The “Plant response rating, Ducksalad” value ([18]; 31 g ai/ha) was 0, the “Plant response rating, Ducksalad” value ([18]; 62 g ai/ha) was 40 and the “Plant response rating, Ducksalad” value ([18]; 125 g ai/ha) was 50. For the same molecule, the “Plant response rating, Ducksalad” value ([18]; 250 g ai/ha) was 80, the “Plant response rating, Barnyardgrass” value ([19]; 31 g ai/ha, scale 0 to 100) was 0 and the “Plant response rating, Barnyardgrass” value ([19]; 62 g ai/ha, scale 0 to 100) was 0. For the same molecule, the “Plant response rating, Barnyardgrass” value ([19]; 125 g ai/ha, scale 0 to 100) was 10, the “Plant response rating, Barnyardgrass” value ([19]; 250 g ai/ha, scale 0 to 100 (0 no effect, 100 complete control)) was 20 and the “Plant response rating, Sedge, Umbrella” value ([20]; 31 g ai/ha) was 0. The “Plant response rating, Sedge, Umbrella” value ([20]; 62 g ai/ha) was 20, the “Plant response rating, Sedge, Umbrella” value ([20]; 125 g ai/ha) was 50 and the “Plant response rating, Sedge, Umbrella” value ([20]; 250 g ai/ha) was 75.
